Laboratory results from ChEMBL document CHEMBL1955762, “An iminosugar N-pentafluorobenzyl-1-deoxynojirimycin as a novel potential immunosuppressant for the treatment of Th2-related diseases” (Bioorg Med Chem Lett, 2012).
Active and inactive are the calls of the source. The rule behind the calls is not given here.

What was measured:
T-cell [1] = experiment: Immunosuppressant activity in human CD4+ T cells assessed as Con A-induced intracellular IL4 level at 90 uM after 72 hrs by flow cytometry (reference value: 4.2+/-0.9%); type: functional
PBMC [2] = experiment: Inhibition of Con-A-induced phospho-STAT6 expression in human PBMC at 90 uM after 72 hrs by flow cytometry (reference value: 10.52+/-1.9%); type: functional; conditions: read-out: INH
PBMC [3] = experiment: Immunosuppressant activity in human PBMC assessed as reduction in Con A-induced extracellular IL4 level at 90 uM after 72 hrs by ELISA relative to untreated control; type: functional; parameters: scale not given: the % may be the effect or the level left
Schistosoma japonicum = experiment: Antischistosomiasis activity against Schistosoma japonicum infected in C57BL/6 mouse at 100 mM, iv after 45 days; type: functional, organism-based
[4] = Induction of apoptosis in Con A-stimulated human PBMC assessed as viable cells at 90 uM after 72 hrs by annexin V/PI based flow cytometric analysis (reference value: 84.6 %); type: cell-based; conditions: read-out: Activity
[5] = target: Tyrosine-protein kinase JAK1 (Homo sapiens) (UniProt P23458); experiment: Inhibition of PMA-induced JAK1 phosphorylation in human PBMC at 90 uM after 15 mins by Western blot analysis
PBMC [6] = experiment: Inhibition of Con A-induced phospho-GATA3 expression in human PBMC at 90 uM after 72 hrs by flow cytometry; type: functional, cell-based
Mus musculus [7] = experiment: Immunosuppressant activity in C57BL/6 mouse infected with Schistosoma japonicum assessed as inhibition of IL-4 production in liver at 100 mM, iv after 56 days by ELISA; type: functional, organism-based
Mus musculus [8] = experiment: Immunosuppressant activity in C57BL/6 mouse infected with Schistosoma japonicum assessed as decrease in liver granuloma size at 100 mM, iv after 45 days; type: functional, organism-based
T-cell [9] = experiment: Immunosuppressant activity in human CD3+ CD4+ T cells pretreated with TritonX 100 assessed as CD4 internalization at 90 uM after 72 hrs by confocal laser scanning microscopy; type: functional, cell-based
[10] = target: Tyrosine-protein kinase JAK1 (Homo sapiens) (UniProt P23458); experiment: Inhibition of PMA-induced JAK1 phosphorylation in human PBMC at 90 uM by Western blot analysis; conditions: TDE = time-dependent effect
PBMC [11] = experiment: Inhibition of PMA-induced GATA3 expression in human PBMC at 90 uM after 15 mins by Western blot analysis; type: functional, cell-based
Mus musculus [12] = experiment: Immunosuppressant activity in C57BL/6 mouse infected with Schistosoma japonicum assessed as inhibition of IL-4 production in spleen at 100 mM, iv after 56 days by ELISA; type: functional, organism-based
T-cell [13] = experiment: Immunosuppressant activity in human CD3+ CD4+ T cells pretreated with TritonX 100 assessed as reduction in CD4 surface expression at 90 uM after 72 hrs by flow cytometry (reference value: 46%); type: functional; parameters: scale not given: the % may be the effect or the level left
Mus musculus [14] = experiment: Immunosuppressant activity in C57BL/6 mouse infected with Schistosoma japonicum assessed as inhibition of IFN-gamma production in liver at 100 mM, iv after 45 days by ELISA; type: functional, organism-based
Splenocyte = experiment: Immunosuppressant activity in BALB/c mouse splenocytes assessed as reduction in Con A-induced IL4 secretion at 90 uM after 72 hrs by ELISA; type: functional, cell-based
PBMC [15] = experiment: Inhibition of ConA-induced phospho-JAK1 expression in human PBMC at 90 uM after 72 hrs by flow cytometry; type: functional, cell-based
Mus musculus [16] = experiment: Immunosuppressant activity in C57BL/6 mouse infected with Schistosoma japonicum assessed as inhibition of IFN-gamma production in liver at 100 mM, iv after 56 days by ELISA; type: functional, organism-based
[17] = target: Tyrosine-protein kinase JAK1 (Homo sapiens) (UniProt P23458); experiment: Inhibition of JAK1-mediated GATA3 phosphorylation in PMA-stimulated human PBMC at 90 uM after 30 mins by Western blot analysis
PBMC [18] = experiment: Induction of apoptosis in Con A-stimulated human PBMC assessed as late apoptotic cells at 90 uM after 72 hrs by annexin V/PI based flow cytometric analysis (reference value: 4.3 %); type: cell-based
T-cell [19] = experiment: Immunosuppressant activity in human CD3+ CD4+ T cells assessed as reduction in CD4 surface expression at 90 uM after 72 hrs by flow cytometry (reference value: 46%); type: functional; parameters: scale not given: the % may be the effect or the level left
Mus musculus [20] = experiment: Immunosuppressant activity in C57BL/6 mouse infected with Schistosoma japonicum assessed as inhibition of IFN-gamma production in spleen at 100 mM, iv after 56 days by ELISA; type: functional, organism-based
T-cell [21] = experiment: Inhibition of CD4 expression in human CD4+ T cells; type: functional, cell-based
Mus musculus [22] = experiment: Immunosuppressant activity in C57BL/6 mouse infected with Schistosoma japonicum assessed as inhibition of IL-4 production in liver at 100 mM, iv after 45 days by ELISA; type: functional, organism-based
[23] = target: Tyrosine-protein kinase JAK1 (Homo sapiens) (UniProt P23458); experiment: Inhibition of JAK1-mediated GATA3 phosphorylation in PMA-stimulated human PBMC at 90 uM by Western blot analysis; conditions: TDE = time-dependent effect
Mus musculus [24] = experiment: Immunosuppressant activity in C57BL/6 mouse infected with Schistosoma japonicum assessed as inhibition of IFN-gamma production in spleen at 100 mM, iv after 45 days by ELISA; type: functional, organism-based
PBMC [25] = experiment: Induction of apoptosis in Con A-stimulated human PBMC assessed as early apoptotic cells at 90 uM after 72 hrs by annexin V/PI based flow cytometric analysis (reference value: 6.3 %); type: cell-based
PBMC [26] = experiment: Inhibition of PMA-induced JAK1 expression in human PBMC at 90 uM after 15 mins by Western blot analysis; type: functional, cell-based
PBMC [27] = experiment: Induction of apoptosis in Con A-stimulated human PBMC assessed as necrotic cells at 90 uM after 72 hrs by annexin V/PI based flow cytometric analysis (reference value: 5.8 %); type: cell-based

Chain of Tyrosine-protein kinase JAK1 (Homo sapiens) (P23458 whole entry): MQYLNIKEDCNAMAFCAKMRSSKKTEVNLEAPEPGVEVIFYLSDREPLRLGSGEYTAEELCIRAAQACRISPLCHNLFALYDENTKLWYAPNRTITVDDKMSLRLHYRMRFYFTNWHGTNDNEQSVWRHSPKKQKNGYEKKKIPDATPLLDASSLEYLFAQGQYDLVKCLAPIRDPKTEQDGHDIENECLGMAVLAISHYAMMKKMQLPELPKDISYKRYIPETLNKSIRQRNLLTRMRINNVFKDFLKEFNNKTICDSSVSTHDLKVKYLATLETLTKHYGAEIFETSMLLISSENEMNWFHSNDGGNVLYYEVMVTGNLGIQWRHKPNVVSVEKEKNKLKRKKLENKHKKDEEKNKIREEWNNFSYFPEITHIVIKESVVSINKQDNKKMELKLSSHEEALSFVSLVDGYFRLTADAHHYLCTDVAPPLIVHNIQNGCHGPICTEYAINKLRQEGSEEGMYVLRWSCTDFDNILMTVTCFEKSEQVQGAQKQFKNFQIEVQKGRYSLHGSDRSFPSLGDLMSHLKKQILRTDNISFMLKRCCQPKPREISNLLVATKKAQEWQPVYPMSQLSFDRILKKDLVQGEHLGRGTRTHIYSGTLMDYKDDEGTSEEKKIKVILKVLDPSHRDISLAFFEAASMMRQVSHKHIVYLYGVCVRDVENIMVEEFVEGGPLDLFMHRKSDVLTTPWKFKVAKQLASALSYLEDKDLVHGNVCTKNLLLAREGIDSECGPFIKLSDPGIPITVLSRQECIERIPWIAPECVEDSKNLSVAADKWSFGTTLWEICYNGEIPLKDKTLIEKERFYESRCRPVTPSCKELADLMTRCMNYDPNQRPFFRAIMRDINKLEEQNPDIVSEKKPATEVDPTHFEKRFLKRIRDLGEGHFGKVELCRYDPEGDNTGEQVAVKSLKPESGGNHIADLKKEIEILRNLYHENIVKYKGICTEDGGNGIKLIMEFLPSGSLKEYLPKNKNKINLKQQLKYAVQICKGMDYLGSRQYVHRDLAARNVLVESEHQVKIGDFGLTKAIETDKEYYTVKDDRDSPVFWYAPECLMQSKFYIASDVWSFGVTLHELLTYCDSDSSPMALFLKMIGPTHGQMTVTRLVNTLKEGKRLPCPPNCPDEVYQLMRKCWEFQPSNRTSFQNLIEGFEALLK

inhibition [5] | inhibition [17] | IC50 (T-cell [21]) | SMILES | Activity (T-cell [1]) | phospho-STAT6 expression level at 90 µM (PBMC [2]) | Activity (PBMC [3]) | inhibition (PBMC [6]) | inhibition (PBMC [11]) | inhibition (PBMC [15]) | inhibition (PBMC [26]) | other results
– | – | – | C/C=C/C[C@@H](C)[C@@H](O)[C@H]1C(=O)N[C@@H](CC)C(=O)N(C)CC(=O)N(C)[C@@H](CC(C)C)C(=O)N[C@@H](C(C)C)C(=O)N(C)[C@@H](CC(C)C)C(=O)N[C@@H](C)C(=O)N[C@H](C)C(=O)N(C)[C@@H](CC(C)C)C(=O)N(C)[C@@H](CC(C)C)C(=O)N(C)[C@@H](C(C)C)C(=O)N1C [CYCLOSPORINE] | 0.71% | 3.7% | 26% | – | – | – | – | –
Active | Active | 20.2 µM | OC[C@@H]1[C@@H](O)[C@H](O)[C@@H](O)CN1Cc1c(F)c(F)c(F)c(F)c1F | 0.79% | 4.5% | 26% | Active | inactive | Active | inactive | Activity (Schistosoma japonicum): Active; viability at 72 h, 90 µM [4]: 83%; inhibition (Mus musculus [7]): inactive; Activity (Mus musculus [8]): Active; Activity (T-cell [9]): Active; inhibition [10]: tde; inhibition (Mus musculus [12]): Active; Activity (T-cell [13]): 44%; inhibition (Mus musculus [14]): inactive; Activity (Splenocyte): Active; inhibition (Mus musculus [16]): inactive; Activity (PBMC [18]): 5.2%; Activity (T-cell [19]): 28%; inhibition (Mus musculus [20]): inactive; inhibition (Mus musculus [22]): inactive; inhibition [23]: tde; inhibition (Mus musculus [24]): inactive; Activity (PBMC [25]): 7.2%; Activity (PBMC [27]): 4.7%
inactive | inactive | 25.6 µM | OC[C@H]1NC[C@H](O)[C@@H](O)[C@@H]1O [DUVOGLUSTAT] | 2.53% | 9.6% | inactive | Active | inactive | Active | inactive | –
inactive | inactive | – | OC[C@H]1NC[C@@H](O)[C@@H](O)[C@@H]1O [DEOXYMANNOJIRIMYCIN] | 1.5% | 8.8% | – | Active | inactive | Active | inactive | –
